Experimental data from patent publication EP0094586A2, “Glycerol derivatives, process for preparing same and pharmaceutical composition containing same” (ONO PHARMACEUTICAL CO., LTD., priority 1982, dated 1983).
pIC50: −log10 of the molar value.

Experiments:
mice = assay: Acute toxicity by intravenous administration; format: in vivo; details: intravenously administered to tail vein in ten mice at the dose of 30 mg/kg
Protocol: On the other hand, it was confirmed that the acute toxicity of all extent of the compounds of the present invention was more than 30 mg/kg by intravenous administration. Therefore, glycerol derivatives of the present invention may be considered to be sufficiently safe and suitable for medical use. For example, the mortality (dead/used) in glycerol derivatives of the present invention, i.e. compounds prepared in Example l(g), l(v), 5(d), 12(b), 12(n), 12(o), 12(s) and 12(x) was 0/10, 0/10, 0/10, 1/10/ 0/10, 0/10, 0/10 and 0/10, respectively, when each glycerol compound was intravenously administered to tail vein in ten mice at the dose of 30 mg/kg.

[1] = molecular target: phospholipase C obtained from lung of guinea-pig; assay: Inhibitory effect on phospholipase C (method of Rittenhouse-Simmons, 3H-labelled phosphatidyl-inositol substrate); format: biochemical; details: enzyme from lung of guinea-pig; substrate 3H-myoinositol labelled phosphatidyl-inositol from rat liver microsome
Protocol: (3) Inhibitory effect on phospholipase C
The activity of the enzyme was examined by the method of Rittenhouse-Simmons by using ^3H-myoinsitol labelled phosphatidyl-inositol biosynthesized in microsome of liver in rat as substrate and phospholipase C obtained from lung of guinea-pig as enzyme [cf. J. Clin. Invest., 63, 580 (1979)].
(§1) The evaluation is conducted using the concentration of compounds of the present invention required to produce a 50% inhibition of each effect, i.e. IC50.

[2] = molecular target: phospholipase A2 obtained from lung of guinea-pig; assay: Inhibitory effect on phospholipase A2 (modified method of Shakir, 14C-arachidonyl phosphatidylcholine substrate); format: biochemical; details: enzyme from lung of guinea-pig; substrate L-B-[1-14C]-arachidonyl-a'-stearoyl-phosphatidylcholine
Protocol: (2) Inhibitory effect on phospholipase A
The activity of the enzyme was examined by modification of the method of Shakir by using L-B-[1-^14C]- arachidonyl-a'-stearoyl-phosphatidylcholine as substrate and phospholipase A2 obtained from lung of guinea-pig as enzyme [cf. Anal. Biochem., 114, 67 (1981)].
as §1

[3] = molecular target: PAF-induced platelet aggregation (Cavia porcellus, UniProt P21556); assay: Inhibitory effect on PAF-induced platelet aggregation (method of Born, platelet rich plasma); format: cell-based; details: platelet rich plasma from male guinea-pig; PAF (10 nM)-induced aggregation
PAF-induced platelet aggregation, sequence (P21556 whole entry): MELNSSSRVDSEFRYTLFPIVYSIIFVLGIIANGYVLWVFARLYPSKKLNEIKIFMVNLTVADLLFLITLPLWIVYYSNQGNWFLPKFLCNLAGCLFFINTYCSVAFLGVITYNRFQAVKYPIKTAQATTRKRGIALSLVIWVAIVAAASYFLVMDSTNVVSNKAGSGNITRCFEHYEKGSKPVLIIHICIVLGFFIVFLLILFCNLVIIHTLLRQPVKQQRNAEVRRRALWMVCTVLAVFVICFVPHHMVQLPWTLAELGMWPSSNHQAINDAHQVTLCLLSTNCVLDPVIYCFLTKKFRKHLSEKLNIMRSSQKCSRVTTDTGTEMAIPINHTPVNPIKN
Protocol: (1) Inhibitory effect on PAF-induced platelet aggregation
A mixture of 9 parts of blood obtained from male guinea-pig, and one part of 3.8X trisodium citrate was centrifuged for 10 minutes at 120 x g at room temperature to obtain platelet rich plasma (PRP). Using obtained PRP, PAF (lOnM)-induced aggregation was determined by the method of Born [cf. J. Physiol., 162, 67 (1962)].
as §1

Row | Molecule | mortality (dead/used) (mice) | pIC50 [1] | pIC50 [2] | pIC50 [3]
1 | CCCCCCCCCCCCCCCCOCC(COCCCC[N+](C)(C)C)OC(=O)NC (racemic) [12 (o), (2RS)-1-0-hexadecyl-2-0-(N-methylcarbaraoyl)-3-0-[4-(N,N,N-trimethylammonio)butyl]glycerol halide] | 0/10 |  |  | 
2 | CCCCCCCCCCCCCCCCOCC(COCCCC[N+](C)(C)C)OCc1ccccc1 (racemic) [1 (g), (2RS)-l-0-hexadecyl-2-0-benzyl-3-0-[4-(N,N,N-trimethylammonio)butyl]glycerol chloride] | 0/10 | 3.74 | 3.89 | 
3 | CCCCCCCCCCCCCCCCOCC(COCCCC[N+](C)(C)C)OC(=O)c1ccccc1 (racemic) [12 (n), (2RS)-l-0-hexadecyl-2-0-benzoyl-3-0-[4-(N,N,N-trimethylammonio)-butyl]glycerol halide] | 0/10 |  |  | 
4 | (2RS)-1-0-hexadecyl-2-[ethoxy(thiocarbonyl)thio]-3-0-[4-(N,N,N-trimethylammonio)butyl]-1,3-propanediol halide [12 (x)] | 0/10 | 3.70 | 3.62 | 5.42
5 | CCCCCCCCCCCCCCCCOCC(COCCCC[N+](C)(C)C)SCC (racemic) [12 (s), (2RS)-l-0-hexadecyl-2-ethylthio-3-0-[4-(N,N,N-trimethylammonio)-butyl]-1,3-propanediol halide] | 0/10 |  |  | 
6 | CCCCCCCCCCCCCCCCOCC(COC(=O)CCC[N+](C)(C)C)OCc1ccccc1 (racemic) [1 (v), (2RS)-1-0-hexadecyl-2-0-benzyl-3-0-[4-(N,N,N-trimethylammonio)-butyryl]glycerol halide] | 0/10 |  |  | 
7 | CCCCCCCCCCCCCCCCSCC(COCCCC[N+](C)(C)C)OCc1ccccc1 (racemic) [12 (b), (2RS)-1-hexadecylthio-2-0-benzyl-3-0-[4-(N,N,N-trimethylammanio)-butyl]-2,3-propanediol halide] | 1/10 |  |  | 
8 | CCCCCCCCCCCCCCCCOCC(O)COCCCC[N+](C)(C)C (racemic) [5 (d), (2RS)-1-0-hexadecyl-3-0-[4-(N,N,N-trimethylammonio)butyl]glycerol halide] | 0/10 | 3.18 | 3.62 | 
